Experiment [1] relates to KRas-mediated phosphorylation of ERK in H358 cells. In words: Inhibition of KRas-mediated phosphorylation of ERK (Cisbio HTRF pERK), H358 cells. Conditions: Homo sapiens, NCI-H358, HTRF pERK. Format: cell-based. The method in brief:
(§1)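 Signal read by HTRF (d2/Cryptate antibody pair, 2 hr room-temperature incubation on lysate). Cells: 6,000 per well, 3 hr compound exposure. Titration: 10 uM highest, 3-fold, 10 points.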
On the technique in general: Time-resolved FRET reads energy transfer from a long-lived donor to a nearby acceptor.

Experiment [2] relates to KRas-mediated phosphorylation of ERK in HCT116 cells. The experiment is described as follows: Inhibition of KRas-mediated phosphorylation of ERK (Cisbio HTRF pERK), HCT116 cells. Format: cell-based. The note with it: Homo sapiens, HCT-116, HTRF pERK. The method in brief: as §1
Experiment [3] deals with KRas-mediated phosphorylation of ERK in A549 cells. In words: Inhibition of KRas-mediated phosphorylation of ERK (Cisbio HTRF pERK), A549 cells. The format is cell-based. The note with it: Homo sapiens, HTRF pERK. The essentials: as §1
Experiment [4] relates to KRas-mediated phosphorylation of ERK in AsPC-1 cells. In words: Inhibition of KRas-mediated phosphorylation of ERK (Cisbio HTRF pERK), AsPC-1 cells. The format is cell-based. The note with it: Homo sapiens, ASPC1, AsPC-1 cells; HTRF pERK. The essentials:
as §1

The test system of experiment [5] is KRas-mediated phosphorylation of ERK in H460 cells. The experiment is described as follows: Inhibition of KRas-mediated phosphorylation of ERK (Cisbio HTRF pERK), H460 cells. Format: cell-based. The note with it: Homo sapiens, NCI-H460, HTRF pERK. The essentials: as §1
Experiment [6] addresses T1, KRas^G12S (Homo sapiens, UniProt P01116, G12S).
T1 construct: Biotinylated KRas (corresponding to amino acids 1-169, produced at Accelegan Inc.); biotin (biotinylated); purchased Accelegan Inc
The experiment is described as follows: KRas binding assay (TR-FRET tracer displacement), KRas G12S. The note with it: TR-FRET tracer displacement, KRas G12S.

In experiment [7] the target is T2, KRas^G12C (Homo sapiens, UniProt P01116, G12C).
T2 construct: Biotinylated KRas (corresponding to amino acids 1-169, produced at Accelegan Inc.); biotin (biotinylated); purchased Accelegan Inc
T2 sequence (P01116 1-169 isoform P01116-2 G12C): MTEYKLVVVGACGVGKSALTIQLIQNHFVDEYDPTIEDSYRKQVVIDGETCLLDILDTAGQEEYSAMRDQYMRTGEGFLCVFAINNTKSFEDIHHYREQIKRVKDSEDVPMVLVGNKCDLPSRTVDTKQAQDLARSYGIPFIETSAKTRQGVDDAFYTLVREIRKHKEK
The experiment is described as follows: KRas binding assay (TR-FRET tracer displacement), KRas G12C. Conditions: TR-FRET tracer displacement, KRas G12C.

For experiment [8], the system named is KRas-mediated phosphorylation of ERK in H727 cells. In words: Inhibition of KRas-mediated phosphorylation of ERK (Cisbio HTRF pERK), H727 cells. Format: cell-based. The note with it: Homo sapiens, NCI-H727, H727 cells; HTRF pERK. The method in brief: as §1
Experiment [9] deals with T3, KRas^G12V (Homo sapiens, UniProt P01116, G12V).
T3 construct: Biotinylated KRas (corresponding to amino acids 1-169, produced at Accelegan Inc.); biotin (biotinylated); purchased Accelegan Inc
T3 sequence (P01116 1-169 isoform P01116-2 G12V): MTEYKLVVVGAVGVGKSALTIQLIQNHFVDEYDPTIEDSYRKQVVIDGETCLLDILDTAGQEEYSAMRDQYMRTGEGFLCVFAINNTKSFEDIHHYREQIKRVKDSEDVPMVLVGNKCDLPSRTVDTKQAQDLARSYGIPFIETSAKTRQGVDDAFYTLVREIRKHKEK
The experiment is described as follows: KRas binding assay (TR-FRET tracer displacement), KRas G12V.

The target in experiment [10] is T4, KRas^G12D (Homo sapiens, UniProt P01116, G12D).
T4 construct: Biotinylated KRas (corresponding to amino acids 1-169, produced at Accelegan Inc.); biotin (biotinylated); purchased Accelegan Inc
T4 sequence (P01116 1-169 isoform P01116-2 G12D): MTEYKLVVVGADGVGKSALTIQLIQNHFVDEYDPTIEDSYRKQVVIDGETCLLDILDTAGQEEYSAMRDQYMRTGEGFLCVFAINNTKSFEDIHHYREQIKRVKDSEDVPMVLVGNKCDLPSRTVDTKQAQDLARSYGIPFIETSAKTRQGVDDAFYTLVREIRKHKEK
In words: KRas binding assay (TR-FRET tracer displacement), KRas G12D.

Experiment [11] has as its target T5, KRas^WT (Homo sapiens, UniProt P01116).
T5 construct: Biotinylated KRas (corresponding to amino acids 1-169, produced at Accelegan Inc.); biotin (biotinylated); purchased Accelegan Inc
The experiment is described as follows: KRas binding assay (TR-FRET tracer displacement), KRas WT. Conditions: TR-FRET tracer displacement, KRas WT.

For experiment [12], the system named is KRas-mediated phosphorylation of ERK in MKN1 cells. In words: Inhibition of KRas-mediated phosphorylation of ERK (Cisbio HTRF pERK), MKN1 cells. The format is cell-based. The note with it: Homo sapiens, MKN-1. The essentials:
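Phospho-ERK is quantified by HTRF with the Advanced pERK kit. Cells go in at 6,000/well in RPMI plus 10% FBS overnight at 37° C. under 5% CO2, with a 4-hour covered room-temperature incubation ahead of the read.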

Among the data in patent publication US20260015350A1, “AZAQUINAZOLINE PAN-KRAS INHIBITORS” (Mirati Therapeutics, Inc., priority 2022, published 2026) are IC50 values, retold here.

Some results are limits rather than exact numbers.

Usually IC50 stands for the midpoint of a concentration-inhibition curve. The low end stands for inhibition by little substance, the high end for a need for much substance.

T5 sequence (P01116 1-169 isoform P01116-2): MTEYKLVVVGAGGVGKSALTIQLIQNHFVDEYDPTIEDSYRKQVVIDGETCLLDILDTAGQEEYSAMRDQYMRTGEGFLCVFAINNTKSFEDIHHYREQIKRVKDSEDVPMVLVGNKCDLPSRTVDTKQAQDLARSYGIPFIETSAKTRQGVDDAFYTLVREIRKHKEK
T1 sequence (P01116 1-169 isoform P01116-2 G12S): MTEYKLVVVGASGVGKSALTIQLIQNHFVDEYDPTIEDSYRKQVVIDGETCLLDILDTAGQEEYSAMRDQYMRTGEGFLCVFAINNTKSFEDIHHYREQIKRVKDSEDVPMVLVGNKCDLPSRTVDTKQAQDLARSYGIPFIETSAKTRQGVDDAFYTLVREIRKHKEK

For the compound `C=C1CN2CC(=C)CC2(COc2nc(N3C[C@@H]4C[C@H](C3)[C@H](O)C4)c3cnc(-c4cc(O)cc5ccc(F)c(CC)c45)c(F)c3n2)C1` [Example 796, (1R,5R,6R)-3-(2-((2,6-dimethylenetetrahydro-1H-pyrrolizin-7a(5H)-yl)methoxy)-7-(8-ethyl-7-fluoro-3-hydroxynaphthalen-1-yl)-8-fluoropyrido[4,3-d]pyrimidin-4-yl)-3-azabicyclo[3.2.1]octan-6-ol], the IC50 in [1] is 5 nM; in [2], 37 nM; in [3], 7 nM; in experiment [4], 21 nM; in experiment [5] it was 8 nM; in experiment [6], under 2 nM. Further, the concentration for half-maximal inhibition (IC50) in experiment [7] is under 2 nM; in [8], 12 nM; in experiment [9], under 2 nM; in [10], under 2 nM; in experiment [11], under 2 nM; in experiment [12] it was 2 nM.
Turning to `CCc1c(F)ccc2cc(O)cc(-c3ncc4c(N5C[C@@H]6C[C@H](C5)[C@H](O)C6)nc(OCC56CCCN5C/C(=C/F)C6)nc4c3F)c12` (stereo partly drawn) [Example 930, (1R,5R,6R)-3-(7-(8-ethyl-7-fluoro-3-hydroxynaphthalen-1-yl)-8-fluoro-2-(((E)-2-(fluoromethylene)tetrahydro-1H-pyrrolizin-7a(5H)-yl)methoxy)pyrido[4,3-d]pyrimidin-4-yl)-3-azabicyclo[3.2.1]octan-6-ol], the IC50 in experiment [1] was 1 nM; in experiment [3], 3 nM; in [4] it was 13 nM; in experiment [6], under 2 nM; in experiment [7] it was under 2 nM; in experiment [8], 4 nM. For the same compound, the IC50 in [9], in experiment [10] and in experiment [11] was under 2 nM in each case.
`C[C@@H]1C[C@@H]1c1c(Cl)cc(O)cc1-c1ncc2c(N3CCC[C@]4(C3)NC(=O)NC4=O)nc(OC[C@@]34CCCN3C[C@H](F)C4)nc2c1F` [Example 932, (R)-7-(7-(3-chloro-5-hydroxy-2-((1S,2R)-2-methylcyclopropyl)phenyl)-8-fluoro-2-(((2R,7aS)-2-fluorotetrahydro-1H-pyrrolizin-7a(5H)-yl)methoxy)pyrido[4,3-d]pyrimidin-4-yl)-1,3,7-triazaspiro[4.5]decane-2,4-dione]: the IC50 in experiment [1] was 23 nM; in experiment [2] it was 130 nM; in experiment [3] it was 69 nM; in experiment [4], 139 nM; in [5] it was 33 nM; in experiment [6] it was under 2 nM. Further, the half-maximal inhibitory concentration (IC50) in experiment [7] was under 2 nM; in [8], 225 nM; in experiment [9] it was under 2 nM; in experiment [10], under 2 nM; in [11], under 2 nM; in experiment [12], 3 nM.
`C[C@@H]1C[C@@H]1c1c(Cl)cc(O)cc1-c1ncc2c(N3CCCn4nc(C(=O)N(C)C)cc4C3)nc(OC[C@@]34CCCN3C[C@H](F)C4)nc2c1F` [Example 933, 5-(7-(3-chloro-5-hydroxy-2-((1S,2R)-2-methylcyclopropyl)phenyl)-8-fluoro-2-(((2R,7aS)-2-fluorotetrahydro-1H-pyrrolizin-7a(5H)-yl)methoxy)pyrido[4,3-d]pyrimidin-4-yl)-N,N-dimethyl-5,6,7,8-tetrahydro-4H-pyrazolo[1,5-a][1,4]diazepine-2-carboxamide]: the half-inhibitory concentration (IC50) in [1] is 18 nM; in [2], 526 nM; in experiment [3], 202 nM; in experiment [4] it was 29 nM; in experiment [5], 287 nM; in experiment [6], under 2 nM. Further, the IC50 was under 2 nM in experiment [7]; 70 nM in experiment [8]; under 2 nM in experiment [9]; under 2 nM in experiment [10]; 4 nM in experiment [11]; 11 nM in experiment [12].
Consider `C=C1CN2CCCC2(COc2nc(N3CCCC4(CC(O)C4)C3)c3cnc(-c4cc(O)cc5ccc(F)c(CC)c45)c(F)c3n2)C1` (stereo not shown) [Example 934, 6-(7-(8-ethyl-7-fluoro-3-hydroxynaphthalen-1-yl)-8-fluoro-2-((2-methylenetetrahydro-1H-pyrrolizin-7a(5H)-yl)methoxy)pyrido[4,3-d]pyrimidin-4-yl)-6-azaspiro[3.5]nonan-2-ol], for which the IC50 in experiment [1] was 1 nM; in experiment [3], 7 nM; in [4] it was 11 nM; in experiment [6] it was under 2 nM; in experiment [7], under 2 nM; in [8] it was 6 nM. Besides, the IC50 in experiment [9] was under 2 nM; in experiment [10], under 2 nM; in experiment [11], under 2 nM; in [12], 0.2 nM.
For `C#Cc1c(F)ccc2cc(O)cc(-c3ncc4c(N5CCCC6(CCO6)C5)nc(OC[C@@]56CCCN5C[C@H](F)C6)nc4c3F)c12` (stereo partly drawn) [Example 935, 5-ethynyl-6-fluoro-4-(8-fluoro-2-(((2R,7aS)-2-fluorotetrahydro-1H-pyrrolizin-7a(5H)-yl)methoxy)-4-(1-oxa-6-azaspiro[3.5]nonan-6-yl)pyrido[4,3-d]pyrimidin-7-yl)naphthalen-2-ol], the IC50 is 70 nM in [4]; 5 nM in [6]; 7 nM in experiment [7]; 73 nM in [8]; 4 nM in [9]; 4 nM in experiment [10]. The half-inhibitory concentration (IC50) in experiment [11] is 7 nM.
Regarding `C=C1CN2CCCC2(COc2nc(N3CCCC4(CC(=O)N4)C3)c3cnc(-c4cc(O)cc5ccc(F)c(CC)c45)c(F)c3n2)C1` (stereo not shown) [Example 943, 6-(7-(8-ethyl-7-fluoro-3-hydroxynaphthalen-1-yl)-8-fluoro-2-((2-methylenetetrahydro-1H-pyrrolizin-7a(5H)-yl)methoxy)pyrido[4,3-d]pyrimidin-4-yl)-1,6-diazaspiro[3.5]nonan-2-one], the IC50 in experiment [1] is 4 nM; in [3] it was 27 nM; in experiment [4], 32 nM; in experiment [6], under 2 nM; in [7] it was under 2 nM; in [8], 50 nM. The IC50 is under 2 nM in [9], under 2 nM in [10], under 2 nM in [11] and 0.4 nM in experiment [12].
As for `C=C1CN2CCCC2(COc2nc(N3CC4C(=O)NC(=O)C4C3)c3cnc(-c4cc(O)cc5ccc(F)c(CC)c45)c(F)c3n2)C1` (stereo not shown) [Example 947, 5-(7-(8-ethyl-7-fluoro-3-hydroxynaphthalen-1-yl)-8-fluoro-2-((2-methylenetetrahydro-1H-pyrrolizin-7a(5H)-yl)methoxy)pyrido[4,3-d]pyrimidin-4-yl)tetrahydropyrrolo[3,4-c]pyrrole-1,3(2H,3aH)-dione], the half-maximal inhibitory concentration (IC50) is 29 nM in experiment [1]; 119 nM in experiment [3]; 157 nM in experiment [4]; under 2 nM in experiment [6]; under 2 nM in experiment [7]; 352 nM in [8]. Also, the IC50 in [9] is under 2 nM; in experiment [10] it was under 2 nM; in [11], under 2 nM; in experiment [12] it was 4 nM.
